{"source": "patent US20070082017A1", "about": "“Lipid compositions and methods of use” (priority 2004, published 2007)", "test_system": "patients with dry eye symptoms", "experiment": "Clinical use of lipid composition applied to the eyelid margin for dry eye", "assay_type": "in vivo, human", "conditions": "Patient No. 4; 1 percent non-preserved, two weeks", "text": "These patients were afflicted with meibomian gland dysfunction, various forms of dry eye syndrome, abnormal lids due to chemical burns, Stevens-Johnson syndrome, ocular pemphigoid, etc."}
{"compound": "C[C@H]1C[C@@H]2[C@H]([C@@H](O)C[C@@]3(C)[C@H]2CC[C@]3(O)C(=O)CO)[C@@]2(C)C=CC(=O)C=C12", "note": "[methyl prednisolone]", "values": [{"measurement": "improvement of symptoms", "value": 50, "unit": "%"}]}
